Assays:
Assay type in all cases: in vivo
[1] = test system: Foxtail, Giant (giant foxtail, Setaria faberi); test: Test A1 postemergence, Foxtail, Giant; details: for Plant response rating, Foxtail, Giant: Postemergence; for Foxtail, Giant plant response rating: postemergence
Procedure, shortened: (§1)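 Plants were grown in a loam soil/sand blend, with test chemicals formulated in a non-phytotoxic solvent mixture containing surfactant. Preemergence treatment (corn) was a directed soil spray at planting. Postemergence treatment was applied to plants 2 to 10 cm tall at the one- to two-leaf stage.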

[2] = test system: wheat (Triticum aestivum); test: Test A1 postemergence, wheat; details: for Plant response rating, Wheat: Postemergence; for Wheat plant response rating: postemergence
Procedure, shortened: as §1

[3] = test system: wheat (Triticum aestivum); test: Test A1 preemergence, wheat
Procedure, shortened: (§2)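 Herbicidal response was scored on plants treated either preemergence, by directed spray onto soil of a loam–sand blend after sowing, or postemergence on potted plants at the one- to two-leaf stage, 2–10 cm high. Test chemicals were carried in a non-phytotoxic solvent mix with surfactant.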

corn (Zea mays) = test: Test A1 preemergence, corn
Procedure, shortened: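 Postemergence species (ragweed, Palmer pigweed, wild oat) were sprayed at one- to two-leaf stage, 2 to 10 cm tall. Corn was treated preemergence by directed soil spray. Both used a loam soil/sand blend and compounds in a non-phytotoxic solvent mixture with surfactant.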

soybean (Glycine max) = test: Test A1 postemergence, soybean; details: for Plant response rating, Soybean: Postemergence; for Soybean plant response rating: postemergence
Procedure, shortened: as §1

rice (Oryza sativa) = test: Test B1 flooded paddy test, rice; details: 250 g ai/ha, Flood, applied to paddy water, 2-leaf stage, visually evaluated after 10 to 14 days
Source text: A dash (-) response means no test result.

[4] = test system: blackgrass (Alopecurus myosuroides); test: Test A1 preemergence, blackgrass
Procedure, shortened: as §2

[5] = 31 g ai/ha, 0 to 100 scale (0 no effect, 100 complete control), 10 days
[6] = 31 g ai/ha, 0 to 100 scale (0 no effect, 100 complete control)
[7] = 125 g ai/ha, 0 to 100 scale, 0 no effect, 100 complete control

| Structure (SMILES) | Plant response rating, Foxtail, Giant [1, 5] | Plant response rating, Foxtail, Giant ([1]; 125 g ai/ha, 0 to 100 scale) | Plant response rating, Wheat [2, 5] | Plant response rating, Wheat ([2]; 125 g ai/ha, 0 to 100 scale) | Plant response rating, Wheat [3, 6] | Plant response rating, Wheat [3, 7] | Plant response rating, Corn (corn (Zea mays); [6]) | Plant response rating, Corn (corn (Zea mays); [7]) | Plant response rating, Soybean (soybean (Glycine max); [5]) | Plant response rating, Soybean (soybean (Glycine max); 125 g ai/ha, 0 to 100 scale) | Plant response rating, Rice (0 to 100 scale, 0 is no effect, 100 is complete control) (rice (Oryza sativa)) | Plant response rating, Blackgrass [4, 6] | Plant response rating, Blackgrass [4, 7] | Foxtail, Giant plant response rating [1, 6] | Wheat plant response rating [2, 6] | Soybean plant response rating (soybean (Glycine max); [6]) |
| --- | --- | --- | --- | --- | --- | --- | --- | --- | --- | --- | --- | --- | --- | --- | --- | --- |
| CCCCOC1CC(c2cc(NS(=O)(=O)C(F)(F)F)c(C)cc2C)=NO1 (stereo not drawn) [Compound 323] | 10 | 50 | 0 | 50 | 0 | 50 | 0 | 10 | 0 | 30 | 0 | 0 | 30 |  |  |  |
| CCOC(=O)N(c1cc(C(=O)N2CCOCC2)c(C)cc1C)S(=O)(=O)C(F)(F)F [Compound 363] | 30 | 90 | 40 | 60 | 40 | 90 | 0 | 60 | 60 | 60 | 25 | 50 | 90 |  |  |  |
| CCOC(=O)N(c1cc(C(=O)N2CCC(c3ccccc3)CC2)c(C)cc1C)S(=O)(=O)C(F)(F)F [Compound 365] | 0 | 0 | 0 | 20 | 0 | 0 | 0 | 0 | 0 | 60 | 15 | 0 | 0 |  |  |  |
| CCC1CC(c2cc(N(COC(=O)C(C)(C)C)S(=O)(=O)C(F)(F)F)c(C)cc2C)=NO1 (stereo not drawn) [Compound 376] |  | 20 |  | 40 | 0 | 20 | 0 | 0 |  | 100 | 20 | 0 | 20 | 0 | 10 | 20 |
| CCOC1CC(c2cc(NS(=O)(=O)C(F)(F)F)c(C)cc2C)=NO1 (stereo not drawn) [Compound 318] | 0 | 80 | 50 | 70 | 0 | 50 | 0 | 70 | 30 | 40 | 0 | 30 | 70 |  |  |  |
| Cc1cc(C)c(N(S(=O)(=O)C(F)(F)F)S(=O)(=O)C(F)(F)F)cc1C1=NOC2COCC12 (stereo not drawn) [Compound 296] | 0 | 10 | 0 | 30 | 10 | 90 | 0 | 70 | 30 | 40 | 0 | 10 | 60 |  |  |  |
| Cc1cc(C)c(-n2nccc(C)c2=O)cc1NS(=O)(=O)C(F)(F)F [Compound 281] | 0 | 30 | 0 | 20 | 0 | 20 | 0 | 0 | 50 | 60 | 0 | 0 | 0 |  |  |  |
| Cc1c(NS(=O)(=O)C(F)(F)F)cc(C(=O)N2CCOCC2)c(C)c1Cl [Compound 290] | 0 | 70 | 0 | 60 | 0 | 40 | 0 | 20 | 0 | 20 | 0 | 20 | 70 |  |  |  |
| CCC1ON=C(c2cc(N(COC(=O)C(C)(C)C)S(=O)(=O)C(F)(F)F)c(C)cc2C)C1CC (stereo not drawn) [Compound 344] | 10 | 30 | 40 | 70 | 0 | 0 | 10 | 10 | 40 | 50 | 40 | 0 | 30 |  |  |  |
| Cc1cc(C)c(N(COC(=O)N(C)C)S(=O)(=O)C(F)(F)F)cc1C1=NOC2CCCC12 (stereo not drawn) [Compound 317] | 0 | 0 | 0 | 0 | 0 | 0 | 0 | 0 | 0 | 0 | 0 | 0 | 0 |  |  |  |
| Cc1c(NS(=O)(=O)C(F)(F)F)cc(C(=O)N2CC(C)OC(C)C2)c(C)c1C (stereo not drawn) [Compound 328] | 0 | 70 | 0 | 50 | 0 | 30 | 10 | 60 | 60 | 60 | 0 | 20 | 30 |  |  |  |
| Cc1cc(F)c(NS(=O)(=O)C(F)(F)F)cc1C1=NOC2(CCCC2)C1 [Compound 303] | 30 | 80 | 0 | 50 | 30 | 90 | 0 | 90 | 30 | 50 | 0 | 0 | 40 |  |  |  |
| CCOC(=O)N(c1cc(C(=O)N2C[C@@H](C)O[C@H](C)C2)c(C)c(C)c1C)S(=O)(=O)C(F)(F)F (relative stereo) [Compound 374] |  | 80 |  | 50 | 0 | 30 | 20 | 40 |  | 90 | 0 | 0 | 0 | 0 | 20 | 50 |
| Cc1cc(Br)c(NS(=O)(=O)C(F)(F)F)cc1C1=NOC2(CCCC2)C1 [Compound 309] | 20 | 60 | 0 | 40 | 0 | 60 | 0 | 0 | 10 | 30 | 0 | 30 | 60 |  |  |  |
| CCC1ON=C(c2cc(N(C(=O)OCC(C)C)S(=O)(=O)C(F)(F)F)c(C)cc2C)C1CC (stereo not drawn) [Compound 348] | 20 | 30 | 0 | 60 | 0 | 30 | 0 | 10 | 50 | 90 | 0 | 30 | 70 |  |  |  |
| Cc1cc(C)c(N(COC(=O)C(C)(C)C)S(=O)(=O)C(F)(F)F)cc1C1=NOC2CCCCCC12 (single isomer, unassigned) [Compound 294] | 0 | 20 | 0 | 20 | 0 | 0 | 0 | 0 | 0 | 50 | 0 | 10 | 0 |  |  |  |
| Cc1c(NS(=O)(=O)C(F)(F)F)cc(C(=O)N2CCC(F)CC2)c(C)c1C [Compound 358] | 0 | 40 | 0 | 0 | 0 | 30 | 0 | 50 | 50 | 70 | 10 | 0 | 10 |  |  |  |
| CCOC(=O)N(c1cc(C(=O)N2CCOCC2)c(C)c(C)c1C)S(=O)(=O)C(F)(F)F [Compound 325] | 30 | 90 | 30 | 50 | 20 | 60 | 0 | 40 | 50 | 80 | 15 | 0 | 40 |  |  |  |

Source: patent US20230278972A1, “SUBSTITUTED HALOALKYL SULFONANILIDE HERBICIDES” (FMC Corporation, priority 2020, published 2023)
